Tests used:
Test in all cases: relative viability (nuclei count vs DMSO), 5 days (fraction); higher = more cells survive
[1] = compound: CC1=CC(=CC=C1)NC2=NC(=CS2)C3=CC=NC=C3 + CC(=O)c1c(C)c2cnc(Nc3ccc(N4CCNCC4)cn3)nc2n(C2CCCC2)c1=O [Palbociclib] (partner 0.5 µM)
Method in brief: (§1)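 Dosing by pin tool came one day after lung cancer cell lines were seeded in 1536-well plates, using either one drug or a fixed anchor-drug dose plus five library-drug doses (not always all listed) in √10 steps. After 5 days, nuclei were counted on 4× images. Relative viability is treated-well nuclei count divided by vehicle-well nuclei count, and values are medians of duplicate plates.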

Masitinib + Crizotinib = compound: Cc1ccc(NC(=O)c2ccc(CN3CCN(C)CC3)cc2)cc1Nc1nc(-c2cccnc2)cs1 [Masitinib] + C[C@@H](Oc1cc(-c2cnn(C3CCNCC3)c2)cnc1N)c1c(Cl)ccc(F)c1Cl [Crizotinib] (partner 1 µM)
Method in brief: as §1

Masitinib + Decitabine = compound: Cc1ccc(NC(=O)c2ccc(CN3CCN(C)CC3)cc2)cc1Nc1nc(-c2cccnc2)cs1 [Masitinib] + Nc1ncn([C@H]2C[C@H](O)[C@@H](CO)O2)c(=O)n1 [Decitabine] (partner 2 µM)
Method in brief: as §1

[2] = compound: CC1=CC(=CC=C1)NC2=NC(=CS2)C3=CC=NC=C3 + NC(=O)Nc1cc(-c2cccc(F)c2)sc1C(=O)N[C@H]1CCCNC1 [AZD7762] (partner 0.2 µM)
Method in brief: as §1

Cell Line | relative viability ([1]; first compound 0.08 µM) | relative viability ([1]; first compound 0.253 µM) | relative viability ([1]; first compound 0.8 µM) | relative viability ([1]; first compound 2.53 µM) | relative viability ([1]; first compound 8 µM) | relative viability (Masitinib + Crizotinib; first compound 0.01 µM) | relative viability (Masitinib + Crizotinib; first compound 0.03162 µM) | relative viability (Masitinib + Crizotinib; first compound 0.1 µM) | relative viability (Masitinib + Crizotinib; first compound 0.3162 µM) | relative viability (Masitinib + Crizotinib; first compound 1 µM) | relative viability (Masitinib + Decitabine; first compound 0.01 µM) | relative viability (Masitinib + Decitabine; first compound 0.03162 µM) | relative viability (Masitinib + Decitabine; first compound 0.1 µM) | relative viability (Masitinib + Decitabine; first compound 0.3162 µM) | relative viability (Masitinib + Decitabine; first compound 1 µM) | relative viability ([2]; first compound 0.08 µM) | relative viability ([2]; first compound 0.253 µM) | relative viability ([2]; first compound 0.8 µM) | relative viability ([2]; first compound 2.53 µM) | relative viability ([2]; first compound 8 µM)
COR-L 105 | 0.353 | 0.45 | 0.391 | 0.421 | 0.33 | 0.657 | 0.803 | 0.876 | 0.686 | 0.717 | 0.617 | 0.658 | 0.619 | 0.61 | 0.639 | – | – | – | – | –
NCI-H596 | – | – | – | – | – | 0.964 | 1.1 | 1.06 | 0.931 | 0.981 | 0.994 | 0.959 | 1.11 | 1.14 | 0.934 | 0.913 | 0.98 | 0.959 | 1.15 | 0.86
A549 | – | – | – | – | – | 0.666 | 0.805 | 0.823 | 0.686 | 0.722 | 0.249 | 0.251 | 0.219 | 0.433 | 0.278 | – | – | – | – | –
NCI-H520 | 0.217 | 0.234 | 0.239 | 0.261 | 0.291 | 0.766 | – | 0.921 | 0.908 | 0.577 | 0.482 | 0.482 | 0.513 | 0.59 | 0.437 | – | – | – | – | –
SK-MES-1 | 0.259 | 0.243 | 0.328 | 0.311 | 0.32 | 0.912 | 1.01 | 1.02 | 1.02 | 0.983 | 0.329 | 0.399 | 0.376 | 0.39 | 0.337 | – | – | – | – | –
NCI-H1650 | 0.278 | 0.281 | 0.449 | 0.235 | 0.239 | 0.958 | 1.09 | 0.876 | 0.862 | 1.02 | 0.438 | 0.391 | 0.411 | 0.493 | 0.345 | – | – | – | – | –
NCI-H2228 | 0.655 | 0.797 | 0.74 | 0.749 | 0.615 | 0.417 | 0.481 | 0.717 | 0.415 | 0.669 | – | – | – | – | – | – | – | – | – | –
NCI-H1299 | – | – | – | – | – | 0.947 | 0.989 | 1.02 | 1.01 | 0.96 | – | – | – | – | – | – | – | – | – | –
NCI-H2023 | 0.408 | 0.428 | 0.424 | 0.355 | 0.112 | 0.638 | 0.737 | 0.645 | 0.493 | 0.589 | 0.205 | 0.271 | 0.327 | 0.195 | 0.187 | – | – | – | – | –
IA-LM | – | – | – | – | – | – | – | 0.871 | 0.618 | 0.84 | – | – | – | – | – | – | – | – | – | –
SW 1573 | 0.443 | 0.364 | 0.43 | 0.426 | 0.257 | 0.761 | 0.786 | 0.754 | 0.718 | 0.778 | 0.492 | 0.537 | 0.535 | 0.51 | 0.471 | – | – | – | – | –

Reference: the supplement of paper PMC10307832
